Reference: US8471005B2 (Cephalon, Inc., priority 2008, dated 2013)

What was measured:
ALK = biological target: T1, ALK (Homo sapiens, UniProt Q9UM73); assay: ALK Kinase Assay (ELISA/TRF, PLC-γ substrate); format: biochemical; conditions: ALK kinase inhibition, 1 μM ATP; read-out: ALK Potency
T1 construct: host or cells: baculovirus expression system
How it was run: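 Time-resolved fluorescence ELISA using Eu-N1 PT66 antibody to detect phosphorylated PLC-γ (coated at 10 μg/mL). Enzyme at 30 ng/ml ALK; 15 min incubation, 37° C.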

JAK2 = biological target: T2, JAK2 (Homo sapiens, UniProt O60674); assay: Recombinant Human JAK2 Kinase Assay (TRF); format: biochemical; conditions: JAK2 kinase inhibition, 0.2 μM ATP; read-out: JAK2 Potency
T2 construct: host or cells: baculovirus expression system
T2 sequence (O60674 whole entry): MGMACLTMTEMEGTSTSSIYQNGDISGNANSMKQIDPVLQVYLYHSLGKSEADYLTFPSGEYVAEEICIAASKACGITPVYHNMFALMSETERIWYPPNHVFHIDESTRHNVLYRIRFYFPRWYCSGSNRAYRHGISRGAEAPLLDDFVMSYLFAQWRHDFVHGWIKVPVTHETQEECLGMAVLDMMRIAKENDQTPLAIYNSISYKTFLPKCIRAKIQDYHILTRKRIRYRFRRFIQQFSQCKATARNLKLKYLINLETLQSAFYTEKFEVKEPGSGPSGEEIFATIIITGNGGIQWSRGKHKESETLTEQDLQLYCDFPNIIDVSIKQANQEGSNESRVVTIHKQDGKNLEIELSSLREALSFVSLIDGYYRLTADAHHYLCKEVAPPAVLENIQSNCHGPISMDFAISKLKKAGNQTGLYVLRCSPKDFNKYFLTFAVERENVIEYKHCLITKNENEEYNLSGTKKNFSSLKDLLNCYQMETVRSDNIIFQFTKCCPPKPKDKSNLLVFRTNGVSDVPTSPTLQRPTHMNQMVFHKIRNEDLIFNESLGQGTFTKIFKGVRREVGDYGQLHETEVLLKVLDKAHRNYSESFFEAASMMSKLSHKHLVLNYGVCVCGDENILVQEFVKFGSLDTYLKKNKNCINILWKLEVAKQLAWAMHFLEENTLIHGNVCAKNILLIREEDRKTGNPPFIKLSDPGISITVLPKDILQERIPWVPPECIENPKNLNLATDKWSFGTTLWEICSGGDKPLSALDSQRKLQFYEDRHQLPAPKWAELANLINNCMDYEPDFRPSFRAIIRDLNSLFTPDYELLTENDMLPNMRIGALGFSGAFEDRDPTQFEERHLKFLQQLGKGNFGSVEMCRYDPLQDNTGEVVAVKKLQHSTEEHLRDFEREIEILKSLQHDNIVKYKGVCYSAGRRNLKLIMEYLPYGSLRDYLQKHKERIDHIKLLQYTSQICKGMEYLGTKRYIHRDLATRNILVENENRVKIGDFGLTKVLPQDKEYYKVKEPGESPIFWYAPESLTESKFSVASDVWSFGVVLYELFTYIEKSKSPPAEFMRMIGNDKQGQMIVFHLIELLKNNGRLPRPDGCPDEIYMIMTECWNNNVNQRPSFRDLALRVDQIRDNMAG
How it was run: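 Kinase activity of baculovirus-expressed JAK2 is followed on a surface-immobilised biotinylated peptide, with the reaction run for 20 min at room temperature in buffer containing 0.2 μM ATP and manganese. Phosphorylation is read with Eu-N1 PY100 antibody.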

T1 sequence (Q9UM73 19-1620): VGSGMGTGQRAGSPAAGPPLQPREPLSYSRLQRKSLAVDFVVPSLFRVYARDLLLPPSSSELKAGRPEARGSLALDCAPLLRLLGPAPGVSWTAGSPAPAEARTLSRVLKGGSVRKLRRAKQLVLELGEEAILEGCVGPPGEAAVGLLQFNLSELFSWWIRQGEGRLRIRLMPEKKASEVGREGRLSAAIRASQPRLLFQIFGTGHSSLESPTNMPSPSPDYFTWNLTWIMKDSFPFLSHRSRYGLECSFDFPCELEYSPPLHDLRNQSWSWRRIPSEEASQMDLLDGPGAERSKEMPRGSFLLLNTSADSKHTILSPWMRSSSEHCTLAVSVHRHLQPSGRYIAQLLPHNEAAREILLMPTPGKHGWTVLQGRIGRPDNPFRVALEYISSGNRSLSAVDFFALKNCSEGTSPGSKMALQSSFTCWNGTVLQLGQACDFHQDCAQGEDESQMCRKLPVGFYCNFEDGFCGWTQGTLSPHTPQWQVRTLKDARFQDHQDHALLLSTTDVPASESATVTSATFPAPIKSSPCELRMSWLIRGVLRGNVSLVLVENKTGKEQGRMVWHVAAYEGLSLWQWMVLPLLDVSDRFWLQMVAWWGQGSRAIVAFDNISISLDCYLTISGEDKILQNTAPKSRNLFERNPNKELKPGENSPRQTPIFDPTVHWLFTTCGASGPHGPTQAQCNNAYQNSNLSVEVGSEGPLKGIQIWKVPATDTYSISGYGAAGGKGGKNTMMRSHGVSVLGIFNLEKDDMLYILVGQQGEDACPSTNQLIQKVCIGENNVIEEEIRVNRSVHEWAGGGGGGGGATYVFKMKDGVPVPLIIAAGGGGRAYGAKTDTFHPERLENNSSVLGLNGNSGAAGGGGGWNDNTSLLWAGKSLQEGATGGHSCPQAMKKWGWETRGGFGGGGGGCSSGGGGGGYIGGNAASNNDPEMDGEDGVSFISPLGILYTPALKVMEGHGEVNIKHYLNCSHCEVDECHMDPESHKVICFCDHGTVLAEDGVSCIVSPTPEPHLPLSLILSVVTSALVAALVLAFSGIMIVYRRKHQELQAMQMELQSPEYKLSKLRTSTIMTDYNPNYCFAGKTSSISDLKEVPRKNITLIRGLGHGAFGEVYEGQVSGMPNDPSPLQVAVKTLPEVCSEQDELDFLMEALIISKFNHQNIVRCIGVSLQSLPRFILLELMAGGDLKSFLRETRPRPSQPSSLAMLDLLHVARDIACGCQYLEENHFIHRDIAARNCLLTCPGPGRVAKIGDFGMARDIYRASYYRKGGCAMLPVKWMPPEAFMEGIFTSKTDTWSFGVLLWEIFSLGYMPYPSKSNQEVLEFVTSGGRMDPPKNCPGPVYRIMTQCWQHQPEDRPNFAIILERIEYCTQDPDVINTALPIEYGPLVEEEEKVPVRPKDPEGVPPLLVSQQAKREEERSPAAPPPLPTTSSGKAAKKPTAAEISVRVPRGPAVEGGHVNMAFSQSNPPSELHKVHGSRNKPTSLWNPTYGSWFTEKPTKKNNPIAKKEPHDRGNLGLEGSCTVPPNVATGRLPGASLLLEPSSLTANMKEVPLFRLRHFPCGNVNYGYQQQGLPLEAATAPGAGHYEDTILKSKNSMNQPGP

SMILES	IC50 (ALK) [nM]	IC50 (JAK2) [nM]
COc1cc(CN2C[C@@H](O)[C@H](O)C2)ccc1Nc1ncc2ccc(-c3ccccc3OC)n2n1 [Example 1237, (3R,4R)-1-{3-Methoxy-4-[7-(2-methoxy-phenyl)-pyrrolo[2,1-f][1,2,4]triazin-2-ylamino]-benzyl}-pyrrolidine-3,4-diol]	< 100	100 to 1000
COc1cc(CN2CCN(C(=O)CNC(=O)OC(C)(C)C)CC2)ccc1Nc1ncc2ccc(-c3ccccc3N(C)S(C)(=O)=O)n2n1 [Example 1239, {2-[4-(4-{7-[2-(Methanesulfonyl-methyl-amino)-phenyl]-pyrrolo[2,1-f][1,2,4]triazin-2-ylamino}-3-methoxy-benzyl)-piperazin-1-yl]-2-oxo-ethyl}-carbamic acid tert-butyl ester]	< 100	100 to 1000
COc1cc(CN2CCN(C(C)=O)CC2)ccc1Nc1ncc2ccc(-c3ccccc3N(C)S(C)(=O)=O)n2n1 [Example 1240, N-(2-{2-[4-(4-Acetyl-piperazin-1-ylmethyl)-2-methoxy-phenylamino]-pyrrolo[2,1-f][1,2,4]triazin-7-yl}-phenyl)-N-methyl-methanesulfonamide]	< 100	100 to 1000
COc1cc(CN2CCN(C(=O)CN)CC2)ccc1Nc1ncc2ccc(-c3ccccc3N(C)S(C)(=O)=O)n2n1 [Example 1241, N-[2-(2-{4-[4-(2-Amino-acetyl)-piperazin-1-ylmethyl]-2-methoxy-phenylamino}-pyrrolo[2,1-f][1,2,4]triazin-7-yl)-phenyl]-N-methyl-methanesulfonamide]	< 100	1000 to 10000
COc1cc(CN2CCN(C(=O)CNC(=O)OC(C)(C)C)CC2)ccc1Nc1ncc2ccc(-c3ccccc3OC)n2n1 [Example 1242, [2-(4-{3-Methoxy-4-[7-(2-methoxy-phenyl)-pyrrolo[2,1-f][1,2,4]triazin-2-ylamino]-benzyl}-piperazin-1-yl)-2-oxo-ethyl]-carbamic acid tert-butyl ester]	100 to 1000	100 to 1000
COc1cc(CN2CCN(CC(O)CF)CC2)ccc1Nc1ncc2ccc(-c3ccccc3OC)n2n1 (centres unmarked) [Example 1243, 1-Fluoro-3-(4-{3-methoxy-4-[7-(2-methoxy-phenyl)-pyrrolo[2,1-f][1,2,4]triazin-2-ylamino]-benzyl}-piperazin-1-yl)-propan-2-ol]	< 100	100 to 1000
COc1cc(CN2CCN(C(=O)CN)CC2)ccc1Nc1ncc2ccc(-c3ccccc3OC)n2n1 [Example 1244, 2-Amino-1-(4-{3-methoxy-4-[7-(2-methoxy-phenyl)-pyrrolo[2,1-f][1,2,4]triazin-2-ylamino]-benzyl}-piperazin-1-yl)-ethanone]	< 100	100 to 1000
COc1cc([C@]2(C#N)CC[C@H](N3CCOCC3)CC2)ccc1Nc1ncc2ccc(-c3ccccc3N(C)S(C)(=O)=O)n2n1 [Example 1245, N-{2-[2-({4-[trans-1-cyano-4-(morpholin-4-yl)cyclohexyl]-2-methoxyphenyl}amino)pyrrolo[2,1-f][1,2,4]triazin-7-yl]phenyl}-N-methylmethanesulfonamide]	< 100	100 to 1000
COc1cc(C2(C#N)CCC(N3CCOCC3)CC2)ccc1Nc1ncc2ccc(-c3ccccc3OC)n2n1 (stereo not drawn) [Example 1246, trans-1-[3-methoxy-4-[[7-(2-methoxyphenyl)pyrrolo[2,1-f][1,2,4]triazin-2-yl]amino]phenyl]-4-morpholino-cyclohexanecarbonitrile]	< 100	100 to 1000
COc1cc([C@H]2CC[C@H](N3CCOCC3)CC2)ccc1Nc1ncc2ccc(-c3ccccc3OC)n2n1 [Example 1247, N-{2-methoxy-4-[trans-4-(morpholin-4-yl)cyclohexyl]phenyl}-7-(2-methoxyphenyl)pyrrolo[2,1-f][1,2,4]triazin-2-amine]	< 100	100 to 1000
COc1cc([C@H]2CC[C@H](N3CCOCC3)CC2)ccc1Nc1ncc2ccc(-c3ccccc3N(C)S(C)(=O)=O)n2n1 [Example 1248, N-{2-[2-({2-methoxy-4-[trans-4-(morpholin-4-yl)cyclohexyl]phenyl}amino)pyrrolo[2,1-f][1,2,4]triazin-7-yl]phenyl}-N-methylmethanesulfonamide]	< 100	100 to 1000
COc1cc([C@H]2CC[C@@H](N3CCOCC3)CC2)ccc1Nc1ncc2ccc(-c3ccccc3N(C)S(C)(=O)=O)n2n1 [Example 1249, N-{2-[2-({2-methoxy-4-[cis-4-(morpholin-4-yl)cyclohexyl]phenyl}amino)pyrrolo[2,1-f][1,2,4]triazin-7-yl]phenyl}-N-methylmethanesulfonamide]	< 100	1000 to 10000
CN1CCN(c2ncc3ccc(-c4ccccc4N(C)S(C)(=O)=O)n3n2)CC1 [Example 1250, N-Methyl-N-{2-[2-(4-methyl-piperazin-1-yl)-pyrrolo[2,1-f][1,2,4]triazin-7-yl]-phenyl}-methanesulfonamide]	1000 to 10000	100 to 1000
COc1cc(CN2CCN(C)CC2)ccc1Nc1ncc2ccc(-c3ccccc3N(C)S(C)(=O)=O)n2n1 [Example 1251, N-(2-{2-[2-Methoxy-4-(4-methyl-piperazin-1-ylmethyl)-phenylamino]-pyrrolo[2,1-f][1,2,4]triazin-7-yl}-phenyl)-N-methyl-methanesulfonamide]	< 100	1000 to 10000
COc1cc(CN2CCN(C)CC2)ccc1Nc1ncc2ccc(-c3ccccc3OC)n2n1 [Example 1252, [2-Methoxy-4-(4-methyl-piperazin-1-ylmethyl)-phenyl]-[7-(2-methoxy-phenyl)-pyrrolo[2,1-f][1,2,4]triazin-2-yl]-amine]	< 100	100 to 1000
COc1cc(C2(C#N)CCC(O)CC2)ccc1Nc1ncc2ccc(-c3ccccc3N(C)S(C)(=O)=O)n2n1 (centres unmarked) [Example 1253, N-(2-{2-[4-(1-Cyano-4-hydroxy-cyclohexyl)-2-methoxy-phenylamino]-pyrrolo[2,1-f][1,2,4]triazin-7-yl}-phenyl)-N-methyl-methanesulfonamide]	< 100	100 to 1000
COc1cc(C2(NC(=O)C(F)(F)F)CCC2)ccc1Nc1ncc2ccc(-c3ccccc3N(C)S(C)(=O)=O)n2n1 [Example 1254, 2,2,2-Trifluoro-N-[1-(4-{7-[2-(methanesulfonyl-methyl-amino)-phenyl]-pyrrolo[2,1-f][1,2,4]triazin-2-ylamino}-3-methoxy-phenyl)-cyclobutyl]-acetamide]	100 to 1000	1000 to 10000
COc1cc(C2CCN(CC(N)=O)CC2)ccc1Nc1ncc2c(C)cc(-c3ccccc3N(C)S(C)(=O)=O)n2n1 [Example 1255, 2-[4-(4-{7-[2-(Methanesulfonyl-methyl-amino)-phenyl]-5-methyl-pyrrolo[2,1-f][1,2,4]triazin-2-ylamino}-3-methoxy-phenyl)-piperidin-1-yl]-acetamide]	< 100	100 to 1000
COc1cc(C2CCN(CC(N)=O)CC2)ccc1Nc1ncc2ccc(-c3cn(C)nc3N(C)S(C)(=O)=O)n2n1 [Example 1256, 2-[4-(4-{7-[3-(Methanesulfonyl-methyl-amino)-1-methyl-1H-pyrazol-4-yl]-pyrrolo[2,1-f][1,2,4]triazin-2-ylamino}-3-methoxy-phenyl)-piperidin-1-yl]-acetamide]	< 100	1000 to 10000
COc1cc(C2CCN(CC(N)=O)CC2)ccc1Nc1ncc2ccc(-c3cccnc3N(C)S(C)(=O)=O)n2n1 [Example 1257, 2-[4-(4-{7-[2-(Methanesulfonyl-methyl-amino)-pyridin-3-yl]-pyrrolo[2,1-f][1,2,4]triazin-2-ylamino}-3-methoxy-phenyl)-piperidin-1-yl]-acetamide]	< 100	1000 to 10000
CN(c1ncccc1-c1ccc2cnc(Nc3ccc(C4CCN(CC(N)=O)CC4)cc3)nn12)S(C)(=O)=O [Example 1258, 2-[4-(4-{7-[2-(Methanesulfonyl-methyl-amino)-pyridin-3-yl]-pyrrolo[2,1-f][1,2,4]triazin-2-ylamino}-phenyl)-piperidin-1-yl]-acetamide]	< 100	< 100
COc1cc(C2CCN(CC(N)=O)CC2)ccc1Nc1ncc2c(O)cc(-c3ccccc3N(C)S(C)(=O)=O)n2n1 [Example 1259, 2-[4-(4-{5-Hydroxy-7-[2-(methanesulfonyl-methyl-amino)-phenyl]-pyrrolo[2,1-f][1,2,4]triazin-2-ylamino}-3-methoxy-phenyl)-piperidin-1-yl]-acetamide]	< 100	1000 to 10000
COc1ccccc1-c1cc(O)c2cnc(Nc3ccc(C4CCN(CC(N)=O)CC4)cc3)nn12 [Example 1260, 2-(4-{4-[5-Hydroxy-7-(2-methoxy-phenyl)-pyrrolo[2,1-f][1,2,4]triazin-2-ylamino]-phenyl}-piperidin-1-yl)-acetamide]	100 to 1000	< 100
COc1cc(C2CCN(CC(N)=O)CC2)ccc1Nc1ncc2c(C)cc(-c3ccccc3OC)n2n1 [Example 1262, 2-(4-{3-Methoxy-4-[7-(2-methoxy-phenyl)-5-methyl-pyrrolo[2,1-f][1,2,4]triazin-2-ylamino]-phenyl}-piperidin-1-yl)-acetamide]	< 100	100 to 1000
COc1cc(C2CCNCC2)ccc1Nc1ncc2c(C)cc(-c3ccccc3N(C)S(C)(=O)=O)n2n1 [Example 1263, N-{2-[2-(2-Methoxy-4-piperidin-4-yl-phenylamino)-5-methyl-pyrrolo[2,1-f][1,2,4]triazin-7-yl]-phenyl}-N-methyl-methanesulfonamide]	< 100	100 to 1000
